One series relates to erythema. The series can be described thus: Animal test: severity of UV-induced erythema on rat back. It is filed as in vivo, female Spraguex-Dawley rats. The arrangement: key: -: No erythema; ±: Very slight erythema; +: Slight erythema; ++: Medium erythema; +++: Severe erythema. The following applies: Test zone, 1% suspension. The text has this:
(§1) Test Method Ten heads of female Spraguex-Dawley rats of 4-week age were used for the test. The back of each rat was divided into two zones along its center line; one (test zone) was coated with a 1% suspension of kojic acid in a 1% aqueous solution of carboxymethylcellulose, and the other (control zone) was coated with a 1% aqueous solution of carboxymethylcellulose. The coated solution was washed off with hot water one hour later, and each zone was then irradiated with ultraviolet rays for 20 minutes using four UV tubes (Toshiba, Model 20S;E30) placed 62 cm away from the back of each rat. This operation was performed three times a week (on Monday, Wednesday and Friday) and continued over a period of six months. The drug solution and control solution were applied every day (even on days when UV irradiation was omitted). After that, the coating operation alone was continued for an additional six months. Severity of erythema developed on each zone was observed immediately after the start of the test, and 2, 4, 6, 8, 10 and 12 months later.

Another series has as its system elastosis. The series can be described thus: Animal test: UV-induced elastosis, elastic fiber histology (Hematoxylin-Eosin, Weigert and Orcein-Giemsa staining). It is filed as in vivo, female Spraguex-Dawley rats. Particulars: Test Zone, 1% suspension, total 10, end of the test (12 months).
Excerpt: as §1, with “At” for “Severity of erythema developed on each zone was observed immediately after”, “end” for “start”, “test, tissues were excised from the test” for “test,”, “control zones of each rat, paraffin sections of the skin, prepared from the tissues taken out, were subjected to a Hematoxylin-Eosin, Weigert” for “2, 4, 6, 8, 10”, “Orcein-Giemsa staining process, and the conditions of the elastic fiber were observed.” for “12 months later.”

The subject of a further series is mouse melanoma B16 cells. Put plainly: Color fading test of cultured pigment cells (mouse melanoma B16 cells). It is filed as cell-based. As to the method: Besides the effects described above, the drugs of this invention also have powerful action to inhibit the formation of melanin. To be more specific, the drugs are very effective in inhibiting the formation of dopachrome (a red pigment). […] A color fading test of cultured pigment cells was carried out using kojic acid and kojic acid/β-cyclodextrin inclusion complex.
B: 20% solution of kojic acid/β-cyclodextrin inclusion complex
Mouse melanoma B16 cells (hereinafter referred to simply as "B16 cells") (each dish containing […] cells) were grown in Eagle's MEM medium (with 10% fetal calf serum added thereto), (a) in the presence of kojic acid at a concentration of 2.5 mM (Test zone A), (b) in the presence of kojic acid/β-cyclodextrin inclusion complex at a concentration of 2.5 mM (as kojic acid) (Test zone B), and (c) in the absence of any drug (Test zone C), at 37° C. for six days in an atmosphere consisting of 5% CO2 and 95% air. At the end of incubation, each culture was treated with trypsin, then centrifuged at 2000rpm for five minutes to prepare cell pellets, and the degree of blackness was visually compared.

The next series concerns mice. The following applies: mice (both male and female), orally administered; cited from earlier work.
Another series concerns rats. Particulars: rats (both male and female), orally administered; cited from earlier work.

The structures appear in SMILES notation.

With `O=c1cc(CO)occ1O` [Kojic acid], the Severity of erythema entry is “-” with erythema (Coating Alone, month 8); “-” in the series on erythema (Coating Alone, month 10); “-” with erythema (Coating Alone, month 12); “-” with erythema (Irradiation Period, month 0 (immediately after the start)); “+” with erythema (Irradiation Period, month 2); “++” in the series on erythema (Irradiation Period, month 4). Also, in the series on erythema (Irradiation Period, month 6), the Severity of erythema entry is on record as “++”. Moreover, the “Number of rats with evaluation + (Slight elastosis)” value in the series on elastosis is on record as 3. Moreover, the “Number of rats with evaluation ++ (Medium elastosis)” value in the series on elastosis amounted to 1. Moreover, the “Number of rats with evaluation +++ (Severe elastosis)” value in the series on elastosis is 0. Besides, the “Number of rats with evaluation - (No elastosis)” value with elastosis was found to be 3. For the same compound, the “Number of rats with evaluation ± (Very slight elastosis)” value in the series with elastosis came to 3. Moreover, the “Color fading (degree of blackness of cell pellet, visual)” value in the series with mouse melanoma B16 cells (2.5 mM (as kojic acid), six days, 37° C., compared with Test zone C (control)) was “Considerable color fading”. Besides, the “Inhibition of the formation of melanin (conclusion from color fading test)” value in the series on mouse melanoma B16 cells (mouse melanoma B16 cells) was “outstanding effect”. For the same compound, the 50% lethal dose (LD50) with mice and in the series with rats was 2500 to 3500 mg/kg throughout.

As usually defined, the LD50 is the dose expected to kill half of the subjects tested.

Values taken from US4891361A, “Method of minimizing erythema and elastosis” (Sansho Seiyaku Co., Ltd., priority 1985, dated 1990).
